Results on 3 molecules are retold here after patent publication US10532064B2, “Biophosphonate compounds and gamma delta T cell-mediated therapy for treating epstein-barr virus-associated disorders” (priority 2014, dated 2020).

Test [1] relates to cytolytic activities of Vγ9Vδ2-T cells against EBV-LCL. Description: Blocking of Vγ9Vδ2-T cell cytotoxicity against EBV-LCL by inhibitors and neutralizing antibodies. The note with it: E:T 10:1; antibodies 10 μg/ml, CMA and Bcl-2 1 μg/ml. The class given is cell-based, human. On the procedure:
FIG. 1A: Phenotypes of EBV-LCL and autologous normal human B cells. The white histograms represent MICA/B, Fas, FasL DR4 and DR5, and the gray histograms represent isotype controls. […] FIG. 1C, 1D, 1G: PAM-expanded Vγ9Vδ2 T cells purified by positive selection were co-cultured with autologous EBV-LCL or normal B cells at different E:T ratios (FIG. 1C) or an E:T ratio of 10:1 (FIGS. 1D and 1G) for 4-6 hours. FIG. 1D: The Vγ9Vδ2 T cells were directly co-cultured with or physically separated from autologous EBV-LCLs for 6 hours by using a transwell system. […] FIG. 1G: The perforin inhibitor CMA, granzyme B inactivator Bcl-2, anti-NKG2D (αNKG2D), anti-TRAIL (αTRAIL) and anti-FasL (αFasL) blocking antibodies, or their relevant isotype control (mouse IgG1, mIgG1) were used in co-culture of EBV-LCL and their autologous PAM-expanded Vγ9Vδ2 T cells. The cytotoxicity was shown as the percentage of inhibition relative to those without any treatment. All the data shown as mean±SEM are representative of four independent experiments. *p<0.05.

In another test the test system is Vγ9Vδ2-T cells. Put plainly: Expansion of Vγ9Vδ2-T cells from huPBMC in vitro with PAM and IL-2. The class given is cell-based, human. As for the experimental part: The data are representative of 4 independent experiments. […] Data are representative of 4 independent experiments. […] Data are representative of 4 independent experiments.
Briefly, huPBMC were cultured in RPMI 1640 medium supplemented with 10% FBS. Pamidronate was added at day 0 and day 3 to a final concentration 9 μg/ml.
Human PBMCs were isolated from buffy coat preparation or anticoagulated peripheral blood by Ficoll-paque (GE Health life Science) gradient centrifugation. The PBMCs were cultured in 10% FBS-RPMI1640 supplemented with 15 ul of expansion reagent A; 25 ul of expansion reagent B was added from day 3 post culture. […] Data are representative for 4 independent experiments.

The subject of test [2] is EBV-LPD. Put plainly: Control of EBV-LPD by pamidronate in humanized mice (whole huPBMC). The class given is in vivo. On the procedure: FIG. 8A: Protocol for the control of EBV-LPD by pamidronate (PAM) in humanized mice. Humanized mice were treated with PAM or PBS at day 0, 7, 14, 21, 28 after inoculation of EBV-LCL. FIG. 8B-8D: After treatment with PAM (n=8) or PBS (n=7), the survival (FIG. 8B), tumor incidence (FIG. 8C) and tumor volume (FIG. 8D) were measured at the indicated time.
(§1) Vγ9Vδ2-T-cell-depleted huPBMC were obtained after double depletions of […] by positive selection with magnetic microbeads. Rag2^−/−γc^−/− mice were transplanted with whole huPBMC or Vγ9Vδ2-T-cell-depleted huPBMC from the same healthy human donor. […] Humanized mice reconstituted with whole huPBMC (PBMC) or Vγ9Vδ2-T-cell-depleted huPBMC (PBMC-γδ-T) were inoculated with EBV-LCL and treated with pamidronate or PBS according to the protocol shown in FIG. 8A. The survival (FIG. 9A), tumor incidence (FIG. 9B) and tumor volume (FIG. 9C) in humanized mice (PBMC+PAM, n=12; PBMC-γδ-T+PAM, n=7; PBMC-γδ-T+PBS, n=6) are shown.
All animal studies were approved and performed in compliance with the guidelines for the use of experimental animals by the Committee on the Use of Live Animals in the Teaching and Research, the University of Hong Kong. Humanized mice were generated in 4-5 weeks old male or female Rag2^−/−γc^−/− mice by reconstitution of EBV seropositive whole huPBMC or Vγ9Vδ2-T-cell-depleted huPBMC as we described before (Tu et al., 2011). […] Humanized mice or 6-8 week old Rag2^−/−γc^−/− mice were inoculated s.c. with EBV-LCL or EGFP-expressing EBV-LCL (0.1×10^6/mouse). […] For humanized mice, a human equivalent dose of PAM (10 mg/kg body weight; Pamisol; Hospira Austrilia Pty Led) was injected i.p. at indicated time. The mice treated with an equivalent volume of PBS were used as controls. The signs of disease (loss of activity, weight loss, ruffled hair, palpable tumors, and ascites) and survival of mice were monitored. Mice with more than 17 mm of diameter subcutaneous tumor were sacrificed and counted as dying. Otherwise, mice were followed for 100 or 170 days and then killed. All mice were examined for postmortem evidence of tumor. The tumors and organs were collected for histology and immunohistochemistry assays.
After inoculation with EBV-LCL (1×10^5/mouse) s.c., humanized mice were injected intraperitoneally (i.p.) with pamidronate (10 mg/kg body weight) at day 0, 7, 14, 21 and 28 post EBV-LCL inoculation (FIG. 8A). PBS-treated mice were used as controls.
Mice reconstituted with whole huPBMC or Vγ9Vδ2-T-cell-depleted huPBMC were inoculated with EBV-LCLs s.c. and injected with pamidronate (10 mg/kg body weight) i.p. at day 0, 7, 14, 21 and 28 post EBV-LCL inoculation.

Test [3] concerns EBV-LPD. Put plainly: Pamidronate in humanized mice reconstituted with Vγ9Vδ2-T-cell-depleted huPBMC. The class given is in vivo. The note with it: 10 mg/kg i.p. day 0, 7, 14, 21, 28.
Description: as §1
All animal studies were approved and performed in compliance with the guidelines for the use of experimental animals by the Committee on the Use of Live Animals in the Teaching and Research, the University of Hong Kong. Humanized mice were generated in 4-5 weeks old male or female Rag2^−/−γc^−/− mice by reconstitution of EBV seropositive whole huPBMC or Vγ9Vδ2-T-cell-depleted huPBMC as we described before (Tu et al., 2011). […] The signs of disease (loss of activity, weight loss, ruffled hair, palpable tumors, and ascites) and survival of mice were monitored. Mice with more than 17 mm of diameter subcutaneous tumor were sacrificed and counted as dying. […]

[4] abbreviates: post 20 days of in vitro culture in the presence of PAM and IL-2.
Where [5] appears, read: Example 5, vs PBS-treated humanized mice.
The mark [6] stands for this setting: Example 6, humanized mice with whole huPBMC.

With `C/C=C/[C@H]1O[C@@](O)([C@@H](C)[C@H](O)[C@H](C)[C@H]2OC(=O)/C(OC)=C/C(C)=C/[C@@H](C)[C@@H](O)[C@@H](CC)[C@@H](O)[C@H](C)C/C(C)=C/C=C/[C@@H]2OC)C[C@@H](O[C@H]2C[C@@H](O)[C@H](OC(N)=O)[C@@H](C)O2)[C@@H]1C` [CMA, concanamycin A], the “effect on cytolytic activity of Vγ9Vδ2-T cells against EBV-LCL” value in test [1] was “strongly inhibited”.

For the molecule `NCCC(O)(P(=O)(O)O)P(=O)(O)O` [pamidronate], the “activation and expansion of Vγ9Vδ2-T cells” value in the test on Vγ9Vδ2-T cells (huPBMC, PAM 9 μg/mL, rhIL-2 from day 3) was “induced selective activation and expansion”. Besides, in the test on Vγ9Vδ2-T cells (setting [4]), the “expansion of Vγ9Vδ2-T cells (mean)” value was 198 fold, the “expansion of Vγ9Vδ2-T cells (range)” value is 156-309 fold and the “percentage of Vγ9Vδ2-T cells within the PBMCs (mean)” value came to 82%. Also, the “percentage of Vγ9Vδ2-T cells within the PBMCs (range)” value in the test on Vγ9Vδ2-T cells (post 20 days of in vitro culture in the presence of PAM and IL-2, baseline 1-5% (mean 3%), 4 experiments) was 67-95%. Further, the “mice died within 100 days” value in the test with EBV-LPD [2] (10 mg/kg i.p. day 0, 7, 14, 21, 28, 1 out of 8 mice, all PBS mice died) is reported as 12.5%. Besides, in the test on EBV-LPD [2] (10 mg/kg i.p. day 0, 7, 14, 21, 28, 3 out of 8 mice), the “mice with subcutaneous tumor growth within 100 days” value is 37.5%. Also, in the test with EBV-LPD [2] (10 mg/kg i.p., vs PBS), the “frequency of Vγ9Vδ2-T cells in the peripheral blood” value is on record as “significantly increased”. In addition, in the test with EBV-LPD [2] (EBV-LCL-grafted humanized mice, pamidronate-treated), the “persistence of Vγ9Vδ2-T cells in the peripheral blood” value was “up to 98 days”. In addition, in the test with EBV-LPD [2] (Example 5, PAM n=8 vs PBS n=7), the survival entry was “significantly prolonged”. For the same molecule, in the test on EBV-LPD [2] (setting [5]), the tumor incidence result is “significantly lower tumor incidence” and the tumor volume entry was “reduced tumor volume”. Further, in the test on EBV-LPD [2] (setting [6]), the tumor occurrence entry is recorded as “reduced tumor occurrence” and the tumor volume result is recorded as “decreased tumor volume”. For the same molecule, in the test with EBV-LPD [2] (Example 6, humanized mice with whole huPBMC, n=12), the survival entry is recorded as “significantly prolonged survival”. Moreover, the “tumor metastasis in other organs at necropsy” value in the test with EBV-LPD [2] (day 100, surviving 7 mice) was “failed to show any evidence of tumor metastasis”. Also, in the test with EBV-LPD [3], the “effects on survival, tumor occurrence and tumor volume” value is “had no such effects”.

Regarding “Bcl-2: granzyme B inactivator Bcl-2 (R&D Systems)”, the “effect on cytolytic activity of Vγ9Vδ2-T cells against EBV-LCL” value in test [1] is recorded as “strongly inhibited”.
